Reference: PubChem BioAssay (NCI)
“And” between values parts separate entries of the source, which are not always exact repeats. Identical values can stand only once.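 Dose response: 5 concentrations. Exposure: 48 h. Format: 96-well plates. Endpoint: linear interpolation; highest concentration if not reached. Abbreviation: GI50, concentration required for 50% inhibition of growth. TGI marks complete inhibition of growth.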

Experiments:
Test in all cases: NCI tumour cell line growth inhibition, 48 h
[1] = system: DLD-1 colon
[2] = system: DMS 114 small cell lung
[3] = system: DMS 273 small cell lung
[4] = system: HOP-18 NSCLC
[5] = system: LXFL 529 NSCLC
[6] = system: M19-MEL melanoma
[7] = system: RXF-631 renal
[8] = system: SNB-78 CNS
[9] = system: XF 498 CNS
[10] = system: P388/ADR leukemia

| Compound | TGI [1] | TGI [2] | TGI [3] | TGI [4] | TGI [5] | TGI [6] | TGI [7] | TGI [8] | TGI [9] | GI50 [1] | GI50 [2] | GI50 [3] | GI50 [4] | GI50 [5] | GI50 [6] | GI50 [8] | GI50 [9] | GI50 [10] | TGI [10] |
| --- | --- | --- | --- | --- | --- | --- | --- | --- | --- | --- | --- | --- | --- | --- | --- | --- | --- | --- | --- |
| COc1cc2cc(OC)c3cc4c(cc3c2c(OC)c1OC)OCO4 | 51.5 µM | > 100 µM | 35.6 µM | > 100 µM | > 100 µM | 48.8 µM | > 100 µM | > 100 µM | – | – | – | – | – | – | – | – | – | – | – |
| Cc1c(C(=O)CC(=O)C(=O)Nc2ccccc2C(F)(F)F)[n+](=O)c2ccccc2n1[O-] | – | 25.2 µM | 59.9 µM | 37 µM | 62.1 µM | – | – | > 100 µM | 42 µM | – | – | – | – | – | – | – | – | – | – |
| CNS(=O)(=O)NNS(=O)(=O)c1ccccc1 | > 100 µM | > 100 µM | > 100 µM | > 100 µM | > 100 µM | > 100 µM | – | – | > 100 µM | – | – | – | – | – | – | – | – | – | – |
| NC1=NCCC1(c1ccccc1)c1ccccn1 (stereo not given) | – | > 100 µM | > 100 µM | > 100 µM | > 100 µM | > 100 µM | – | > 100 µM | > 100 µM | – | – | – | – | – | – | – | – | – | – |
| O=C(CCc1nc(=S)[nH][nH]1)Nc1cc(Cl)c(Cl)cc1Cl | – | > 100 µM | > 100 µM | – | > 100 µM | > 100 µM | > 100 µM | > 100 µM | > 100 µM | – | – | – | – | – | – | – | – | – | – |
| NC(=O)NO.O.O.O.O.O.O.O.O.O.O.O.[Ge].[Ge].[Ge].[Ge].[Ge].[O]=[Ge].[O]=[Ge].[O]=[Ge].[O]=[Ge].[O]=[Ge][OH] | > 100 µM | – | > 100 µM | > 100 µM | > 100 µM | > 100 µM | – | > 100 µM | > 100 µM | – | – | – | – | – | – | – | – | – | – |
| CCCCCCCCCCCC(=O)OCCOCCOCCOCCOCCOCc1ccccc1 | > 100 µM | > 100 µM | > 100 µM | > 100 µM | > 100 µM | > 100 µM | – | > 100 µM | – | – | – | – | – | – | – | – | – | – | – |
| CCOC(=O)C(C)(C)Oc1ccc2c(-c3ccccc3)cc(=O)oc2c1 | > 100 µM | 64.1 µM | > 100 µM | – | 94.8 µM | 98 µM | – | – | 47.9 µM | – | – | – | – | – | – | – | – | – | – |
| CN(C)N=Nc1ccc(C(N)=O)cc1 | > 100 µM | > 100 µM | > 100 µM | > 100 µM | > 100 µM | > 100 µM | – | > 100 µM | > 100 µM | – | – | – | – | – | – | – | – | – | – |
| Cc1cnc(NCCCN(C)C)c2c1[nH]c1ccc3cc(O)ccc3c12 | 3.7 µM | 0.993 µM | 1.24 µM | 5.97 µM | 1.76 µM | 1.25 µM | – | 3.86 µM | 0.806 µM | – | – | – | – | – | – | – | – | – | – |
| O=C(O)CCNCCCNCCC(=O)O | > 100 µM | > 100 µM | > 100 µM | > 100 µM | > 100 µM | > 100 µM | > 100 µM | – | > 100 µM | – | – | – | – | – | – | – | – | – | – |
| COc1cc2ccnc([C@@H](OC(=O)c3ccccc3)c3ccc(OC)c(OC)c3OC)c2cc1OC | 80.2 µM | > 100 µM | – | > 100 µM | > 100 µM | > 100 µM | > 100 µM | > 100 µM | – | – | – | – | – | – | – | – | – | – | – |
| CCN(CC)CCSc1c2ccccc2nc2cc(NCC(=O)Nc3ccccc3-c3ccccc3NC(=O)CNc3ccc4c(SCCN(CC)CC)c5ccccc5nc4c3)ccc12 | > 100 µM | – | > 58.3 µM | > 100 µM | > 100 µM | > 54.7 µM | > 100 µM | – | > 100 µM | – | – | – | – | – | – | – | – | – | – |
| O=C(Nc1nc2ccc([N+](=O)[O-])cc2s1)C(=O)C(C1OC(=O)c2ccccc21)[N+](=O)[O-] (stereo not given) | > 100 µM | – | – | – | > 100 µM | > 100 µM | > 100 µM | > 100 µM | > 100 µM | – | – | – | – | – | – | – | – | – | – |
| C1=C2/CC[C@H](Sc3ccccc3)C2C2(CCCCC/1)OCCO2 (stereo not given in full) | > 100 µM | – | > 100 µM | > 100 µM | – | 33.5 µM | – | > 100 µM | 58.6 µM | – | – | – | – | – | – | – | – | – | – |
| O=C(O)CCC(NC(=O)c1ccc(Nc2nc3ccccc3nc2-c2cccs2)cc1)C(=O)O (stereo not given) | > 100 µM | > 100 µM | > 100 µM | > 100 µM | > 100 µM | > 100 µM | > 100 µM | > 100 µM | > 100 µM | – | – | – | – | – | – | – | – | – | – |
| CCC[CH2][Sn]([CH2]CCC)([S]c1cccc2cccnc12)[S]c1cccc2cccnc12 | 0.382 µM | 0.319 µM | 0.432 µM | 0.605 µM | 0.163 µM | 0.587 µM | – | 0.825 µM | 0.26 µM | 0.172 µM | 0.129 µM | 0.177 µM | 0.264 µM | 0.039 µM | 0.216 µM | 0.203 µM | 0.101 µM | – | – |
| CCn1c(C)nn2c(=O)c3ccccc3nc2c1=O | > 100 µM | > 100 µM | > 100 µM | > 100 µM | > 100 µM | > 100 µM | – | > 100 µM | > 100 µM | – | – | – | – | – | – | – | – | – | – |
| Nc1ccccc1S(=O)(=O)N(CC(=O)O)c1ccccc1 | > 100 µM | – | > 100 µM | > 100 µM | > 100 µM | > 100 µM | > 100 µM | – | > 100 µM | – | – | – | – | – | – | – | – | – | – |
| O=C(Nc1ccccc1)c1c(O)[nH]c(=S)[nH]c1=O | 90 µM and > 250 µM | 69 µM | 78.9 µM | 118 µM and 184 µM | – | 118 µM | – | 124 µM and > 250 µM | 19.5 µM and 155 µM | 109 µM | – | – | 17.3 µM | – | – | 97.7 µM | 8.86 µM and 61.7 µM | 46.9 µM | 80.6 µM and 116 µM |
| Cc1cc(NS(=O)(=O)c2ccc(Nc3c4ccccc4nc4c(C(=O)N5CCN(CCOS(C)(=O)=O)CC5)cccc34)cc2)no1 | > 100 µM | > 100 µM | > 100 µM | – | – | > 100 µM | – | > 100 µM | > 100 µM | – | – | – | – | – | – | – | – | – | – |
| Cc1nc2c(ccc3ncccc32)[nH]1 | > 100 µM | > 100 µM | > 100 µM | > 100 µM | > 100 µM | > 100 µM | – | – | – | – | – | – | – | – | – | – | – | – | – |
| COC(=O)/C(C#N)=C1\NC(=O)c2ccccc21 | > 100 µM | > 100 µM | > 100 µM | > 100 µM | > 100 µM | > 100 µM | – | > 100 µM | – | – | – | – | – | – | – | – | – | – | – |
| Cc1c(C(=O)C/C(=N/NC(=O)c2ccccc2O)C(=O)Nc2ccccc2C(C)C)[n+](=O)c2ccccc2n1[O-] | > 100 µM | 60.8 µM | > 100 µM | > 100 µM | > 100 µM | > 100 µM | – | > 100 µM | > 100 µM | – | – | – | – | – | – | – | – | – | – |
| Cc1cc(N(CCC#N)CCC#N)ccc1N=Nc1ccc(S(N)(=O)=O)cc1 | > 100 µM | > 100 µM | > 100 µM | > 100 µM | > 100 µM | – | > 100 µM | > 100 µM | > 100 µM | – | – | – | – | – | – | – | – | – | – |
| COC(=O)c1ccccc1NC(=O)C(=O)Cc1nc2c3c(ccc2[nH]c1=O)C(=O)c1ccccc1C3=O | > 100 µM | > 100 µM | 58.1 µM | > 100 µM | > 100 µM | 23.9 µM | > 100 µM | > 100 µM | 91.7 µM | – | – | – | – | – | – | – | – | – | – |
| CC1(C(=O)O)CCC[C@@]2(C)C1CC[C@@]1(C)c3cocc3CCC21 (stereo not given in full) | > 100 µM | > 100 µM | > 100 µM | > 100 µM | > 100 µM | > 100 µM | > 100 µM | > 100 µM | > 100 µM | – | – | – | – | – | – | – | – | – | – |
| CC1(C)C(=O)/C=C\C(=O)C(C)(C)C2=CC=C(O2)C(C)(C)C(=O)/C=C\C(=O)C(C)(C)C2=CC=C1O2 | – | – | > 100 µM | > 100 µM | > 100 µM | > 100 µM | – | > 100 µM | > 100 µM | – | – | – | – | – | – | – | – | – | – |
| CCOC(=O)CCC1(C(=O)OCC)CCCCC1=O (stereo not given) | > 100 µM | > 100 µM | > 100 µM | > 100 µM | > 100 µM | > 100 µM | – | > 100 µM | > 100 µM | – | – | – | – | – | – | – | – | – | – |
